biological target: T1, Renin (Homo sapiens, UniProt P00797); experiment: Inhibition of renin measured every 30 secs for 15 mins by fluorimetric analysis
T1 sequence (P00797 whole entry): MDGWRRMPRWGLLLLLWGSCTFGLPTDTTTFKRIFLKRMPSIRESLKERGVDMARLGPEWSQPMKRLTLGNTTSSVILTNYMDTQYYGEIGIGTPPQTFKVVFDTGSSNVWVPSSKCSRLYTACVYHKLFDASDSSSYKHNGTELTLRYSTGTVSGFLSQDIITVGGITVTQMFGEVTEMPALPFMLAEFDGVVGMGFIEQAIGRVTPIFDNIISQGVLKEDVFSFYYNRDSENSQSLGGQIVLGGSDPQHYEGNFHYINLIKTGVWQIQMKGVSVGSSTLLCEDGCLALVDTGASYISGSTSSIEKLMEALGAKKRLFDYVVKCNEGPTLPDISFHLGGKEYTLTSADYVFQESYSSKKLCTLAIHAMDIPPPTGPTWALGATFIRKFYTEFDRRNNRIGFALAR

Row | Compound | IC50
1 | COCCCOc1cc(C[C@@H](C[C@H](N)[C@@H](O)C[C@H](C(=O)NCC(C)(C)CNS(=O)(=O)c2ccc(C)cc2)C(C)C)C(C)C)ccc1OC | 1.15 nM
2 | CCS(=O)(=O)NCC(C)(C)CNC(=O)[C@@H](C[C@H](O)[C@@H](N)C[C@H](Cc1ccc(OC)c(OCCCOC)c1)C(C)C)C(C)C | 0.91 nM
3 | COCCCOc1cc(C[C@@H](C[C@H](N)[C@@H](O)C[C@H](C(=O)NCC(C)(C)CNC(=O)c2ccc(OC)cc2)C(C)C)C(C)C)ccc1OC | 3.84 nM
4 | CCCCCC(=O)NCC(C)(C)CNC(=O)[C@@H](C[C@H](O)[C@@H](N)C[C@H](Cc1ccc(OC)c(OCCCOC)c1)C(C)C)C(C)C | 0.83 nM
5 | COCCCOc1cc(C[C@@H](C[C@H](N)[C@@H](O)C[C@H](C(=O)NCC(C)(C)CNC(=O)C(C)(C)C)C(C)C)C(C)C)ccc1OC | 4.13 nM
6 | CCC(=O)NCC(C)(C)CNC(=O)[C@@H](C[C@H](O)[C@@H](N)C[C@H](Cc1ccc(OC)c(OCCCOC)c1)C(C)C)C(C)C | 1.08 nM
7 | COCCCOc1cc(C[C@@H](C[C@H](N)[C@@H](O)C[C@H](C(=O)NCC(C)(C)CN)C(C)C)C(C)C)ccc1OC | 2.88 nM
8 | COCCCOc1cc(C[C@@H](C[C@H](N)[C@@H](O)C[C@H](C(=O)NCC(C)(C)CNC(=O)C(F)(F)F)C(C)C)C(C)C)ccc1OC | 4.85 nM
9 | COCCCOc1cc(C[C@@H](C[C@H](N)[C@@H](O)C[C@H](C(=O)NCC(C)(C)CNS(N)(=O)=O)C(C)C)C(C)C)ccc1OC | 0.79 nM
10 | COCCCOc1cc(C[C@@H](C[C@H](N)[C@@H](O)C[C@H](C(=O)NCC(C)(C)CNC(=O)CC(C)C)C(C)C)C(C)C)ccc1OC | 1.48 nM
11 | COCCCOc1cc(C[C@@H](C[C@H](N)[C@@H](O)C[C@H](C(=O)NCC(C)(C)CNC(=O)c2ccccc2)C(C)C)C(C)C)ccc1OC | 1.02 nM
12 | COCCCOc1cc(C[C@@H](C[C@H](N)[C@@H](O)C[C@H](C(=O)NCC(C)(C)CNS(C)(=O)=O)C(C)C)C(C)C)ccc1OC | 4.23 nM
13 | COCCCOc1cc(C[C@@H](C[C@H](N)[C@@H](O)C[C@H](C(=O)NCC(C)(C)CNC(=O)Cc2ccccc2)C(C)C)C(C)C)ccc1OC | 1.64 nM
14 | CCOC(=O)NCC(C)(C)CNC(=O)[C@@H](C[C@H](O)[C@@H](N)C[C@H](Cc1ccc(OC)c(OCCCOC)c1)C(C)C)C(C)C | 0.81 nM
15 | CCCC(=O)NCC(C)(C)CNC(=O)[C@@H](C[C@H](O)[C@@H](N)C[C@H](Cc1ccc(OC)c(OCCCOC)c1)C(C)C)C(C)C | 1.12 nM
16 | COCCCOc1cc(C[C@@H](C[C@H](N)[C@@H](O)C[C@H](C(=O)NCC(C)(C)CNC(=O)N(C)C)C(C)C)C(C)C)ccc1OC | 0.36 nM
17 | COCCCOc1cc(C[C@@H](C[C@H](N)[C@@H](O)C[C@H](C(=O)NCC(C)(C)Cn2ccnn2)C(C)C)C(C)C)ccc1OC | 0.2 nM

biological target: T2, Renin (Homo sapiens) (UniProt P00797); experiment: Ratio IC50 for aliskiren to compound for renin
T2 sequence (whole entry): T1 sequence (P00797 whole entry)

Row | Compound | Ratio IC50
18 | COCCCOc1cc(C[C@@H](C[C@H](N)[C@@H](O)C[C@H](C(=O)NCC(C)(C)Cn2ccnn2)C(C)C)C(C)C)ccc1OC | 10

Reference: ChEMBL document CHEMBL1806463, “Synthesis, biological evaluation and docking studies of octane-carboxamide based renin inhibitors with extended segments toward S3' site of renin” (Bioorg Med Chem, 2011)
